Patent US8193179B2, “3-amino-6-(1-amino-ethyl)-tetrahydropyran derivatives” (Actelion Pharmaceuticals, Ltd, priority 2007, dated 2012)
Converted amounts (≈) assume the structure as drawn. Read-outs that look alike come from different tables or passages of the source.

Tests used:
Type in all cases: cell-based
P. aeruginosa A1124 = experiment: MIC by microdilution in cation-adjusted Mueller-Hinton Broth, P. aeruginosa A1124; settings: strain A1124, test medium pH 7.2-7.3; for MIC: Pseudomonas aeruginosa
Procedure: (§1) These assays have been performed following the description given in “Methods for dilution Antimicrobial Susceptibility Tests for Bacteria that Grow Aerobically, 4th ed.; Approved standard: NCCLS Document M7-A4; National Committee for Clinical Laboratory Standards: Villanova, Pa., USA, 1997”. Minimal inhibitory concentrations (MICs; mg/l) were determined in cation-adjusted Mueller-Hinton Broth (BBL) by a microdilution method following NCCLS guidelines (National Committee for Clinical Laboratory Standards. Methods for Dilution Antimicrobial Susceptibility). The pH of the test medium was 7.2-7.3.

A. baumanii T6474 = experiment: MIC by microdilution in cation-adjusted Mueller-Hinton Broth, A. baumanii T6474; settings: strain T6474, test medium pH 7.2-7.3; for MIC: Acinetobacter baumannii
Procedure: as §1

S. aureus A798 = experiment: MIC by microdilution in cation-adjusted Mueller-Hinton Broth, S. aureus A798; settings: strain A798, test medium pH 7.2-7.3; for MIC: Staphylococcus aureus
Procedure: as §1

[1] = read-out: MIC P. aeruginosa A1124
[2] = read-out: MIC P. aeruginosa A1124 (further typical results, comparison with WO 2006/032466)

Structure (SMILES): NC(Cc1ccnc2ccc(F)cc12)[C@@H]1CC[C@@H](NC/C=C/c2cc(F)ccc2F)CO1 (mixture of isomers) [Example 3, {(3R,6S)-6-[(1RS)-1-amino-2-(6-fluoro-quinolin-4-yl)-ethyl]-tetrahydro-pyran-3-yl}-[(E)-3-(2,5-difluoro-phenyl)-allyl]-amine]
- MIC (P. aeruginosa A1124; [1]): 0.5 µg/mL
- MIC (A. baumanii T6474): 0.5 µg/mL
- MIC (S. aureus A798): 0.25 µg/mL

Structure (SMILES): COc1ccc2ncc(F)c(CC(N)[C@@H]3CC[C@@H](NCc4ccc5c(n4)NC(=O)CO5)CO3)c2n1 (mixture of isomers) [Example 15, 6-({(3R,6S)-6-[(1RS)-1-amino-2-(3-fluoro-6-methoxy-[1,5]naphthyridin-4-yl)-ethyl]tetrahydro-pyran-3-ylamino}-methyl)-4H-pyrido[3,2-b][1,4]oxazin-3-one]
- MIC (P. aeruginosa A1124; [1]): 0.125 µg/mL
- MIC (A. baumanii T6474): ≤ 0.031 µg/mL
- MIC (S. aureus A798): ≤ 0.031 µg/mL

Structure (SMILES): COc1ccc2nccc(C[C@H](N)[C@@H]3CC[C@@H](NCc4ccc(C)c(F)c4)CO3)c2n1 [Example 19]
- MIC P. aeruginosa A1124 (P. aeruginosa A1124): 2 µg/mL (≈ 4.71 µM)
- MIC A. baumanii T6474 (A. baumanii T6474): 0.5 µg/mL (≈ 1.18 µM)
- MIC S. aureus A798 (S. aureus A798): ≦0.031 mg/l

Structure (SMILES): COc1ccc2nccc(C[C@H](N)[C@@H]3CC[C@@H](NCc4ccc5c(n4)NC(=O)CS5)CO3)c2n1 [Example 8, 6-({(3R,6S)-6-[(1S)-1-amino-2-(6-methoxy-[1,5]naphthyridin-4-yl)-ethyl]-tetrahydro-pyran-3-ylamino}-methyl)-4H-pyrido[3,2-b][1,4]thiazin-3-one]
- MIC (P. aeruginosa A1124; [2]): 2 µg/mL (≈ 4.16 µM)

Structure (SMILES): COc1ccc2nccc(CC(N)[C@@H]3CC[C@@H](NCc4ccc5c(n4)NC(=O)CS5)CO3)c2c1 (mixture of isomers) [Example 4, 6-({(3R,6S)-6-[(1RS)-1-amino-2-(6-methoxy-quinolin-4-yl)-ethyl]-tetrahydro-pyran-3-ylamino}-methyl)-4H-pyrido[3,2-b][1,4]thiazin-3-one]
- MIC (P. aeruginosa A1124; [2]): 8 µg/mL
